According to patent US11713338B2, “Cyclic peptides multimers targeting α-4-β-7 integrin” (priority 2016, dated 2023):

Tests used:
[1] = molecular target: T1, recombinant integrin α4β7 (Homo sapiens, UniProt P13612+P26010, DEL724-798); experiment: Integrin α4β7—MAdCAM-1 ELISA competition assay; type: binding; settings: for ELISA Assay Ratio b1/b7: ratio of a4b1 to a4b7 ELISA IC50; for IC50: read-out: ELISA a4b7 Assay IC50
T1 construct: purchased R&D Systems 5397-A3-050
T1 sequence (P13612 34-970 limits assumed): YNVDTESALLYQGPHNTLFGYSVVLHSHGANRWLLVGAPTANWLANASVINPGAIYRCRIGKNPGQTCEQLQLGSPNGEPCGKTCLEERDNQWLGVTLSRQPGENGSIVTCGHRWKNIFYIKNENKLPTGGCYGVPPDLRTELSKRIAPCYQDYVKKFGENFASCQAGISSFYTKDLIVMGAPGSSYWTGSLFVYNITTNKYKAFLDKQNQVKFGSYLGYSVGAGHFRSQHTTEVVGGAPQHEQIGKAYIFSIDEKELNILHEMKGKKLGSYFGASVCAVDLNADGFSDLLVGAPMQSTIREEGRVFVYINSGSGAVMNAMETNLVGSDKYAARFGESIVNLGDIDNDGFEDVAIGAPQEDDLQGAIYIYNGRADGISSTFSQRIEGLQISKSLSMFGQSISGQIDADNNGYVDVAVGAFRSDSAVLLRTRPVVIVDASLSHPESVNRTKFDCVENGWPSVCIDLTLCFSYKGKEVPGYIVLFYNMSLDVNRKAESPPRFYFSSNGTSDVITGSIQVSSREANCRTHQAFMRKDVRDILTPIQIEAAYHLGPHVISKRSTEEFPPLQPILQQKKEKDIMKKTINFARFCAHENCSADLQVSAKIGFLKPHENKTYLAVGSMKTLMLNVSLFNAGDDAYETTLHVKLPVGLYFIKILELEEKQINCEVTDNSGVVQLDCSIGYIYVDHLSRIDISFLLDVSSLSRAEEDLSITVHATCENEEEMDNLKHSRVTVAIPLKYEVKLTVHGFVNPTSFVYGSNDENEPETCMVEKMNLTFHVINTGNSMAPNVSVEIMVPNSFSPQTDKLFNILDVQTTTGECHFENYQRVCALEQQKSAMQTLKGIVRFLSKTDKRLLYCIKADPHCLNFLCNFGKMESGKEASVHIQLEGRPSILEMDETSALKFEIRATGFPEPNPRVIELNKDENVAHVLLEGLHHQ
T1 sequence (P26010 20-723 limits assumed): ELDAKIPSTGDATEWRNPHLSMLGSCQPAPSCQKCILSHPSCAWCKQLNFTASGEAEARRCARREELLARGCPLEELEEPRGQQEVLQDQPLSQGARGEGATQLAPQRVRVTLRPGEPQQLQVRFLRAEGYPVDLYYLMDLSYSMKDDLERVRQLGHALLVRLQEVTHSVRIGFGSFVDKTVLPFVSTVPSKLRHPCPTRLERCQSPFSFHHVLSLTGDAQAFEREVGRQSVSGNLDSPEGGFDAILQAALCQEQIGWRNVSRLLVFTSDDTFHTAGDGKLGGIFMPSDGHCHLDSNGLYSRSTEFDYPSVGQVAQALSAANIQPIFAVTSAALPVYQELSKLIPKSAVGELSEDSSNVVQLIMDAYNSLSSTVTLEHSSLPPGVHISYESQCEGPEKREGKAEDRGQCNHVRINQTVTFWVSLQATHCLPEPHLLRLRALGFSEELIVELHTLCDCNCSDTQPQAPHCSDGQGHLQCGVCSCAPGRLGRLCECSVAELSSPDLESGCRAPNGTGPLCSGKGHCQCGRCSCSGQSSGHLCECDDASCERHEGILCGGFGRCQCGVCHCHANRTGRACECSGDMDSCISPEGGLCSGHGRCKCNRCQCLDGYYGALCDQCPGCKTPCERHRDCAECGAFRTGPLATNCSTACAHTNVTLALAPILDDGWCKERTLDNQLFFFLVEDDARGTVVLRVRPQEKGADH

[2] = molecular target: T2, recombinant integrin α4β1 (Homo sapiens, UniProt P05556+P13612); experiment: Integrin α4β1—VCAM-1 competition ELISA; type: binding; settings: read-out: ELISA a4b1 Assay IC50
T2 construct: purchased R&D Systems 5397-A3-050
Description: Integrin α4β1—VCAM-1 Competition ELISA
The plate was incubated at 4° C. overnight. […] The plate was then incubated for 1 hour at room temperature. The plate was washed three times with wash buffer (50 mM Tris, 100 mM NaCl, 1 mM MnCl2, 0.05% Tween). To each well, 50 μl of compound diluted in assay buffer was added by transfer from a compound serial dilution plate. […] The plate was incubated at room temperature with shaking (300 rpm) for 2 hours to reach binding equilibrium. Then the plate was washed three times in wash buffer and 100 μl anti-human IgG Fc specific-HRP (Abcam, Ab97225) diluted at 1:2000 in assay buffer was added to each well. The plate was incubated at room temperature for 1 hour under agitation.

T2 sequence (P05556 21-728 limits assumed, one chain of several): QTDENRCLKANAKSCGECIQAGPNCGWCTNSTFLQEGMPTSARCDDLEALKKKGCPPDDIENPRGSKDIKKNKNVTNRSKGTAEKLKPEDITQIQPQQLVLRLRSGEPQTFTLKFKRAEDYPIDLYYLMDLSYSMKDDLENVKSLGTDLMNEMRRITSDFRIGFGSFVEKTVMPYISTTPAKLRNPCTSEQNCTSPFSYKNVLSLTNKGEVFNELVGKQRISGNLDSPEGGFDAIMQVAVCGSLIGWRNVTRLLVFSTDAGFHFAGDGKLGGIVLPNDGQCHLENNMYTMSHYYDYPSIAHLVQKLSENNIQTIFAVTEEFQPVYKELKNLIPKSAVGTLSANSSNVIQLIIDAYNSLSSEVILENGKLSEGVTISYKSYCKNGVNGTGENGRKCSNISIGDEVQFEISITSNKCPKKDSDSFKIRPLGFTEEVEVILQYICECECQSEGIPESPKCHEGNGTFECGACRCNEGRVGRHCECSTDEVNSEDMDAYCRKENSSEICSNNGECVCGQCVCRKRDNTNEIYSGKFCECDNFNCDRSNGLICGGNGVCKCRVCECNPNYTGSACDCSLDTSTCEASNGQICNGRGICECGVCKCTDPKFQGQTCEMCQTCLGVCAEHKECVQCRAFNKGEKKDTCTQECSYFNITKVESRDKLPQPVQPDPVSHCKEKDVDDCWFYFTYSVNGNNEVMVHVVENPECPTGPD

Row | SMILES | ELISA Assay Ratio b1/b7 [1] | IC50 [1] [nM] | IC50 [2] [nM]
1 | COc1ccc(C[C@@H]2NC(=O)[C@@H]3CCCN3[C@H](C(=O)NC(C)(C)C)[C@H](C)NC(=O)[C@H]([C@@H](C)O)NC(=O)[C@H](CC(=O)O)NC(=O)[C@H](CC(C)C)NC(=O)[C@H]3CCCN3C2=O)cc1OC [Compound 127] | 7.8 | 25 | 196
2 | CC(C)C[C@@H]1NC(=O)[C@@H](CCCN(C)C)NC(=O)[C@@H]2CCCN2[C@H](C(=O)NC(C)(C)C)[C@H](C)NC(=O)[C@H]([C@@H](C)O)NC(=O)[C@H](CC(=O)O)NC1=O [Compound 83] | 6.9 | 179 | 1230
3 | CC(C)C[C@@H]1NC(=O)[C@@H](CCCCN)NC(=O)[C@H](Cc2ccc(-c3ccccc3)cc2)NC(=O)[C@@H]2CCCN2[C@H](C(=O)NC(C)(C)C)[C@H](C)NC(=O)[C@H]([C@@H](C)O)NC(=O)[C@H](CC(=O)O)NC1=O [Compound 110] | 21.3 | 185 | 3920
4 | CC(C)C[C@@H]1NC(=O)[C@H]2C[C@H](O)CN2C(=O)[C@H](Cc2ccc(CN)cc2)NC(=O)[C@@H]2CCCN2[C@H](C(=O)NC(C)(C)C)[C@H](C)NC(=O)[C@H]([C@@H](C)O)NC(=O)[C@H](CC(=O)O)NC1=O [Compound 152] | 13.2 | 102 | 1350
5 | CC(C)C[C@@H]1NC(=O)[C@H](Cc2ccc(-c3ccccc3)cc2)NC(=O)[C@@H]2C[C@@H](F)CN2[C@H](C(=O)NC(C)(C)C)[C@H](C)NC(=O)[C@H]([C@@H](C)O)NC(=O)[C@H](CC(=O)O)NC1=O [Compound 46] | 2.4 | 106 | 258
6 | CC(C)C[C@@H]1NC(=O)CN(C)C(=O)[C@H](Cc2ccc(-c3ccccc3)cc2)NC(=O)[C@@H]2CCCN2[C@H](C(=O)NC(C)(C)C)[C@H](C)NC(=O)[C@H]([C@@H](C)O)NC(=O)[C@H](CC(=O)O)NC1=O [Compound 116] | 8.4 | 166 | 1380
7 | CC(C)C[C@@H]1NC(=O)[C@H](CC2CCCCC2)NC(=O)[C@@H]2CCCN2[C@H](C(=O)NC(C)(C)C)[C@H](C)NC(=O)[C@H]([C@@H](C)O)NC(=O)[C@H](CC(=O)O)NC1=O [Compound 7] | 1.6 | 117 | 190
8 | CC(C)C[C@@H]1NC(=O)[C@H](Cc2ccc(O)cc2)NC(=O)[C@@H]2CCCN2[C@H](C(=O)NC(C)(C)C)[C@H](C)NC(=O)[C@H](C(C)(C)S)NC(=O)[C@H](CC(=O)O)NC1=O [Compound 55] | 1.1 | 113 | 119
9 | CC(C)C[C@@H]1NC(=O)C2(Cc3ccccc3C2)NC(=O)[C@@H]2CCCN2[C@H](C(=O)NC(C)(C)C)[C@H](C)NC(=O)[C@H]([C@@H](C)O)NC(=O)[C@H](CC(=O)O)NC1=O [Compound 89] | 14.4 | 16 | 232
10 | CC(C)C[C@@H]1NC(=O)[C@H](C2CCCCC2)NC(=O)[C@@H]2CCCN2[C@H](C(=O)NC(C)(C)C)[C@H](C)NC(=O)[C@H]([C@@H](C)O)NC(=O)[C@H](CC(=O)O)NC1=O [Compound 91] | 14.5 | 126 | 1820
